The subject of this experiment is Cox standard strain albino male mice. Kind of experiment: mouse writhing assay (acetic acid-induced writhing). The conditions noted are these: dose required to inhibit induced writhing by fifty percent, 5 mice per group. In kind it is in vivo. The text has this: The analgesic activity of a number of compounds provided by this invention has been determined in the standard rat-tail jerk assay and the mouse writhing assay. Writhing, characterized by contraction of the abdominal musculature, extension of the hind- legs, and rotation of the trunk, was induced in Cox standard strain albino male mice. The mice, weighing 18-24 grams, were fasted overnight and given the test compound by gavage in an acacia suspension (5%) sixty minutes before writhing was induced by the intraperitoneal administration of acetic acid (0.60 percent). Each treatment group consisted of 5 mice. The total number of writhes for the treatment group was determined during a 10-minute observation starting 5 minutes after acetic acid administration. […] The results in the mouse writhing assay are presented as the effective dose in mg./kg. of the tested compound required to inhibit induced writhing in the test animals by fifty percent (ED50). Results are presented in Column II for both subcutaneous (s.c.) and oral (p.o.) administration of the test compound as compared to the reference compound meperidine.

Where [1] appears, read: 1 h, oral (p.o.) administration, acacia suspension (5%), sixty minutes before i.p. acetic acid (0.60 percent), read-out: Mouse Writhing ED50 p.o.
Setting [2] is: sc, subcutaneous (s.c.) administration, writhing induced by i.p. acetic acid (0.60 percent), read-out: Mouse Writhing ED50 s.c.

Where a name gives a salt, the structure may show the parent alone. Read-outs that look alike come from different tables or passages of the source.

Turning to `CCC[C@]12CCN(C)C[C@H]1CCc1ccc(OC)cc12.Cl` (relative stereo) [Example 2, cis-1,2,3,4,4a,5,6,10b-octahydro-3-methyl-9-methoxy-10b-propylbenz[f]isoquinoline hydrochloride], the ED50 (as a rule, the dose that gives a 50% effect, or the effect in half of the subjects) was 11 mg/kg under setting [1] and 10 mg/kg under setting [2].
The matching figures for `CN1CC[C@]2(C)c3cc(O)ccc3CC[C@@H]2C1` (relative stereo) [Example 3, cis-1,2,3,4,4a,5,6,10b-octahydro-3,10b-di-methylbenz[f]isoquinolin-9-ol]: 7.2 mg/kg and 2.3 mg/kg.
The like results for `CCC[C@]12CCNC[C@H]1CCc1ccc(OC)cc12.Cl` (relative stereo) [Example 6, cis-1,2,3,4,4a,5,6,10b-octahydro-9-methoxy-10b-propylbenz[f]isoquinoline hydrochloride] were, in that order, over 80 mg/kg and over 80 mg/kg.
For `C=CCN1CC[C@]2(C)c3cc(O)ccc3CC[C@@H]2C1` (relative stereo) [Example 8, cis-1,2,3,4,4a,5,6,10b-octahydro-3-(2-propenyl)-10b-methylbenz[f]isoquinolin-9-ol], the ED50 by setting is: under setting [1], over 80 mg/kg; under setting [2], 15 mg/kg.
Regarding `C[C@]12CCN(CC3CC3)C[C@H]1CCc1ccc(O)cc12` (relative stereo) [Example 9, cis-1,2,3,4,4a,5,6,10b-octahydro-3-(cyclopropylmethyl)-10b-methylbenz[f]isoquinolin-9-ol], the ED50 was over 80 mg/kg under setting [1] and 32 mg/kg under setting [2].
The matching figures for `C[C@@]12CCN(CCc3ccccc3)C[C@@H]1CCc1ccc(O)cc12` (relative stereo) [Example 10, cis-1,2,3,4,4a,5,6,10b-octahydro-3-(2-phenylethyl)-10b-methylbenz[f]isoquinolin-9-ol]: 38.2 mg/kg and 5.2 mg/kg.
As to `CCC[C@]12CCNC[C@H]1CCc1ccc(O)cc12` (relative stereo) [Example 11, cis-1,2,3,4,4a,5,6,10b-octahydro-10b-propylbenz[f]isoquinolin-9-ol], the ED50 runs as follows: under setting [1], over 80 mg/kg; under setting [2], 62 mg/kg.
The matching figures for `C=CCN1CC[C@]2(CCC)c3cc(O)ccc3CC[C@@H]2C1` (relative stereo) [Example 12, cis-1,2,3,4,4a,5,6,10b-octahydro-3-(2-propenyl)-10b-propylbenz[f]isoquinolin-9-ol]: 45 mg/kg and 12 mg/kg.
For `CCC[C@]12CCN(CC3CC3)C[C@H]1CCc1ccc(O)cc12` (relative stereo) [Example 13, cis-1,2,3,4,4a,5,6,10b-octahydro-3-cyclopropylmethyl-10b-propylbenz[f]isoquinolin-9-ol], the median effective dose (ED50) came to 73 mg/kg under setting [1] and 34 mg/kg under setting [2].
Take `CCC[C@]12CCN(CCc3ccccc3)C[C@H]1CCc1ccc(O)cc12` (relative stereo) [Example 14, cis-1,2,3,4,4a,5,6,10b-octahydro-3-(2-phenylethyl)-10b-propylbenz[f]isoquinolin-9-ol]: the ED50 reads like this: under setting [1], over 80 mg/kg; under setting [2], 78 mg/kg.
The like results for `COc1ccc2c(c1)[C@]1(C)CCN(C)C[C@@H]1CC2` [Example 1, cis-1,2,3,4,4a,5,6,lOb-octahydro-3,lOb-dimethyl-9-methoxybenz[f]isoquinoline hydrochloride] were, in that order, 15 mg/kg and 10 mg/kg.
In the case of `CCC[C@@]12CCN(C)C[C@@H]1CCc1ccc(O)cc12` [Example 4, cis-1,2,3,4,4a,5,6,1Ob-octahydro-3-methyl-10b-propylbenz[f]isoquinolin-9-ol hydrochloride], the ED50 reads like this: under setting [1], 13 mg/kg; under setting [2], 4.5 mg/kg.
The matching figures for `COc1ccc2c(c1)[C@]1(C)CCNC[C@@H]1CC2` [Example 5, cis-1,2,3,4,4a,5,6,10b-octahydro-9-methoxy-LOb-methylbenz[f]isoquinoline hydrochloride]: 80 mg/kg and 62 mg/kg.
As for `C[C@@]12CCNC[C@@H]1CCc1ccc(O)cc12` [Example 7, cis-l,2,3,4,4a,5,6,10b-octahydro-10b-methylbenz[f]isoquinolin-9-ol], the ED50 by setting is: under setting [1], over 80 mg/kg; under setting [2], 80 mg/kg.
The like results for `CCOC(=O)C1(c2ccccc2)CCN(C)CC1` [Meperidine, reference compound] were, in that order, 21 mg/kg and 2.8 mg/kg.
